Laboratory results: PMC10496123, “Potent Antifungal Activity of Penta-O-galloyl-β-D-Glucose against Drug-Resistant Candida albicans, Candida auris, and Other Non-albicans Candida Species” (ACS Infectious Diseases, 2023)
Values after ≈ are worked out from the molar mass of the structure shown.

Assays:
[1] = test system: Candida parapsilosis; assay: Growth inhibition by CLSI microbroth dilution; format: cell-based; details: for IC50 / MIC: 48 h; for IC50: >50% growth inhibition; for MIC: >90% growth inhibition
[2] = test system: Candida glabrata; assay: Growth inhibition by CLSI microbroth dilution; format: cell-based; details: for IC50 / MIC: Nakaseomyces glabratus, 48 h; for IC50: >50% growth inhibition; for MIC: >90% growth inhibition
[3] = test system: Candida auris; assay: Growth inhibition by CLSI microbroth dilution; format: cell-based; details: Candidozyma auris, 48 h
[4] = test system: C. albicans 90028; assay: Iron supplementation growth inhibition assay; format: cell-based, Candida albicans; details: 10 mM iron (II) or iron (III); PGG 4–16 μg mL^–1; 48 h
Method: (§1) For iron supplementation assays, growth inhibition assays were performed by microbroth dilution following the guidelines set by the CLSI.[58] A solution of iron (II) sulfate and iron (III) sulfate (VWR) was dissolved in deionized water to a concentration of 10 mM and added to treated wells at the beginning of incubation. Growth inhibition was measured after 48 h. Percent growth inhibition was determined by comparing treatments to vehicle controls. Iron supplementation experiments were repeated in duplicate with three technical replicates per treatment and on different days.

[5] = test system: C. auris CDC381; assay: Iron supplementation growth inhibition assay; format: cell-based, Candida auris; details: 10 mM iron (II) or iron (III); PGG 4–16 μg mL^–1; 48 h
Method: as §1

[6] = test system: C. albicans 90028; assay: Media supplementation (Mg, Ca, Mn, Zn) growth inhibition assay; format: cell-based, Candida albicans
Method: For media supplementation experiments, magnesium sulfate (Alfa Aesar), manganese sulfate, zinc sulfate, and calcium chloride (Ward Science) were dissolved in RPMI-1640 media and, after 24 h, added at a final concentration of 1 mM. Growth inhibition was measured 24 h after media supplementation. Percent growth inhibition was determined by comparing treatments to vehicle controls. Media supplementation experiments were repeated in triplicate with four technical replicates per treatment and on different days. page 6: Figure S5. Effect of supplemental cations on growth inhibition of penta-O-galloyl- β-D-glucose against C. albicans. C. albicans.90028 was treated with PGG alone and in combination with 1 mM magnesium (Mg2+) or 1 mM calcium (Ca2+). The data are plotted as mean % growth inhibition ± SD as compared to vehicle controls from two independent experiments. Dotted line represents 90% growth inhibition. S6 (1 picture or pasted object on this page, not shown here) page 7: Figure S6. Effect of supplemental metal ions on growth inhibition of penta-O- galloyl-β-D-glucose against C. albicans. C. albicans 90028 was treated with PGG alone and in combination with 1 mM manganese (Mn2+) or 1 mM zinc (Zn2+). The data are plotted as mean % growth inhibition ± SD as compared to vehicle controls from two independent experiments . Dotted line represents 90% growth inhibition . Statistical analysis was done using 2 -way ANOVA with multiple comparisons. The symbol (*) […] S7 (1 picture or pasted object on this page, not shown here)

[7] = test system: drug-sensitive C. albicans; assay: Growth inhibition in fungal growth media with 10% FBS; format: cell-based, Candida albicans; details: 10% fetal bovine serum; concentrations up to 512 μg mL^–1; data not shown
[8] = test system: Staphylococcus aureus (various strains); set-up: method as in doi:10.1016/j.foodchem.2010.04.072; details: antibacterial; possibly iron chelation; cited from earlier work
[9] = test system: MRSA (various strains); details: antibacterial; possibly iron chelation; cited from earlier work
[10] = test system: HCT-116 cells; set-up: method as in PMID 27196315, PMID 29778287; details: inhibition of proliferation; cited from earlier work
[11] = test system: MDA-MB-468; set-up: method as in PMID 33707603; details: induction of apoptosis; cited from earlier work
[12] = test system: Acinetobacter baumanii; set-up: method as in PMID 32948818; details: 21 daily passages; cited from earlier work
[13] = test system: mice; details: 20 mg/kg/day orally in mice; cited from earlier work
[14] = test system: rats; details: up to 120 mg/kg/day intravenously in rats; cited from earlier work
[15] = test system: humans; details: balloon catheter, 3 mg/mL over 25 mL; cited from earlier work
[16] = cited from earlier work
[17] = after oral administration in mice; cited from earlier work

**Q.** Which IC50 ([1]; strain AR Bank #0335) does the source give for O=C(OC[C@H]1O[C@@H](OC(=O)c2cc(O)c(O)c(O)c2)[C@H](OC(=O)c2cc(O)c(O)c(O)c2)[C@@H](OC(=O)c2cc(O)c(O)c(O)c2)[C@@H]1OC(=O)c1cc(O)c(O)c(O)c1)c1cc(O)c(O)c(O)c1 [PGG, penta-O-galloyl-β-D-glucose] here?
**A.** 1 µg/mL (≈ 1.06 µM)

**Q.** And the MIC ([1]; strain AR Bank #0335)?
**A.** 4 µg/mL (≈ 4.25 µM)

**Q.** And the IC50 ([1]; strain AR Bank #0337)?
**A.** 0.5 µg/mL (≈ 0.532 µM)

**Q.** And the MIC ([1]; strain AR Bank #0337)?
**A.** 0.5 µg/mL (≈ 0.532 µM)

**Q.** What about the IC50 ([1]; strain AR Bank #0338) of the same compound?
**A.** 0.25 µg/mL (≈ 0.266 µM)

**Q.** What about the MIC ([1]; strain AR Bank #0338) of the same compound?
**A.** 0.5 µg/mL (≈ 0.532 µM)

**Q.** And the IC50 ([1]; strain AR Bank #0339)?
**A.** 0.5 µg/mL (≈ 0.532 µM)

**Q.** And the MIC ([1]; strain AR Bank #0339)?
**A.** 1 µg/mL (≈ 1.06 µM)

**Q.** And the “MIC (range over strains)” value ([1]; four strains of C. parapsilosis)?
**A.** 0.5 to 4.0 μg mL^–1

**Q.** What about the IC50 ([2]; strain AR Bank #0325) of the same compound?
**A.** 0.25 µg/mL (≈ 0.266 µM)

**Q.** And the MIC ([2]; strain AR Bank #0325)?
**A.** 0.5 µg/mL (≈ 0.532 µM)

**Q.** And the IC50 ([2]; strain AR Bank #0326)?
**A.** 0.125 µg/mL (≈ 0.133 µM)

**Q.** What about the MIC ([2]; strain AR Bank #0326) of the same compound?
**A.** 0.25 µg/mL (≈ 0.266 µM)

**Q.** And the “MIC (range over strains)” value ([2]; two strains of C. glabrata)?
**A.** 0.25 to 0.5 μg mL^–1

**Q.** And the MIC ([3]; strain AR Bank #0381, >90% growth inhibition)?
**A.** 0.25 µg/mL (≈ 0.266 µM)

**Q.** And the IC50 ([3]; strain AR Bank #0387, >50% growth inhibition)?
**A.** 0.5 µg/mL (≈ 0.532 µM)

**Q.** What about the MIC ([3]; strain AR Bank #0387, >90% growth inhibition) of the same compound?
**A.** 1 µg/mL (≈ 1.06 µM)

**Q.** And the IC50 ([3]; strain AR Bank #0390, >50% growth inhibition)?
**A.** 4 µg/mL (≈ 4.25 µM)

**Q.** What about the MIC ([3]; strain AR Bank #0390, >90% growth inhibition) of the same compound?
**A.** 8 µg/mL (≈ 8.5 µM)

**Q.** And the “Reduction of the growth inhibitory activity on iron supplementation” value [4]?
**A.** 80–100%

**Q.** What about the “Reduction of the growth inhibitory activity on iron supplementation” value [5] of the same compound?
**A.** 80–100%

**Q.** What about the “Effect of cation treatment (calcium, magnesium) on growth inhibition” value ([6]; 1 mM Mg2+ or Ca2+) of the same compound?
**A.** no significant effect

**Q.** What about the “Effect of manganese supplementation on growth inhibition” value ([6]; 1 mM Mn2+, at 0.5× MIC of PGG) of the same compound?
**A.** minor effect

**Q.** What about the “Effect of zinc supplementation on growth inhibition” value ([6]; 1 mM Zn2+) of the same compound?
**A.** no effect

**Q.** And the “Growth inhibition in serum-supplemented medium” value [7]?
**A.** loss of growth inhibition

**Q.** What about the IC50/EC50 [8] of the same compound?
**A.** 16 to 32 µg/mL

**Q.** What about the IC50/EC50 [9] of the same compound?
**A.** 16 to 32 µg/mL

**Q.** What about the IC50/EC50 [10] of the same compound?
**A.** 1.61 µM

**Q.** And the IC50/EC50 [11]?
**A.** 35.72 µM

**Q.** What about the Development of resistance [12] of the same compound?
**A.** did not develop resistance

**Q.** What about the Tolerability [13] of the same compound?
**A.** tolerated without ill effects

**Q.** And the Tolerability [14]?
**A.** no ill effects

**Q.** What about the Safety in humans [15] of the same compound?
**A.** safely

**Q.** And the Efflux ratio [16]?
**A.** high efflux ratio

**Q.** What about the Detection in plasma [17] of the same compound?
**A.** could not be detected
